Measured values from PubChem BioAssay (NCI).
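96-well plates; 48 h exposure; 5 concentrations. Endpoints by linear interpolation between flanking doses. Not reached: highest tested concentration assigned. Abbreviation: GI50, concentration required for 50% inhibition of growth. TGI is the concentration that stops growth completely.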

What was measured:
Assay in all cases: growth of human tumour cells (NCI), 48 h
[1] = test system: HCT-15 colon
[2] = test system: HOP-62 NSCLC
[3] = test system: HS 578T breast
[4] = test system: K-562 leukemia
[5] = test system: MDA-MB-435
[6] = test system: NCI-H226 lung
[7] = test system: SK-MEL-2 melanoma
[8] = test system: M14 melanoma
[9] = test system: OVCAR-3 ovarian
[10] = test system: PC-3 prostate

Molecule `CCCC(=O)Nc1cc(/C=C/C(=O)N2CC(CCl)c3c2cc(OC(C)=O)c2[nH]cc(C)c32)n(C)c1` (stereo not given) has a TGI [1] greater than 0.134 µM, a TGI [2] of 0.00389 µM and a TGI [3] of 0.00193 µM. For the same molecule, the TGI [4] was greater than 0.197 µM, the TGI [5] was 0.000686 µM and the TGI [6] was 0.000748 µM. For the same molecule, the TGI [7] was 0.000121 µM.

Work on `COc1ccc(-n2nc(C(=O)c3ccccc3)c3nn4c(=O)cc(-c5ccccc5)nc4nc32)cc1` yielded a GI50 [1] of 43.4 µM, a TGI [1] greater than 100 µM and a GI50 [2] of 44.1 µM. For the same molecule, the TGI [2] was greater than 100 µM, the GI50 [3] was 69.9 µM and the TGI [3] was greater than 100 µM. The GI50 [4] was 40.5 µM, the TGI [4] was greater than 100 µM and the GI50 [8] was 30.3 µM. The TGI [8] was greater than 100 µM, the GI50 [5] was 51.9 µM and the TGI [5] was greater than 100 µM. For the same molecule, the GI50 [6] was 98.1 µM, the TGI [6] was greater than 100 µM and the GI50 [9] was 30.7 µM. For the same molecule, the TGI [9] was greater than 100 µM, the GI50 [10] was 50.5 µM and the TGI [10] was greater than 100 µM. For the same molecule, the GI50 [7] was 45.8 µM and the TGI [7] was greater than 100 µM.

In the case of `C#C[C@]1(O)[C@@H](CO)O[C@@H](n2ccc(=O)[nH]c2=O)[C@@H]1O`, the TGI [2] was 1.05 µM, the TGI [3] was greater than 23.5 µM and the TGI [4] was greater than 100 µM. The TGI [8] was 6.77 µM, the TGI [5] was 3 µM and the TGI [6] was 2.66 µM. The TGI [10] was greater than 29.6 µM and the TGI [7] was 3.32 µM.

In the case of `COc1ccc(-n2nnc3c(C#N)c(C)c(-c4ccccc4)n3c2=O)cc1`, the TGI [1] was greater than 100 µM, the TGI [2] was greater than 100 µM and the TGI [3] was greater than 100 µM. It also gave a TGI [8] greater than 26.7 µM, a TGI [6] greater than 100 µM and a TGI [9] of 44.6 µM. The TGI [10] was greater than 100 µM and the TGI [7] was greater than 100 µM.

`O=C1/C(=C/c2ccc([N+](=O)[O-])cc2)Sc2scc(-c3cccc([N+](=O)[O-])c3)[n+]21` gave a TGI [1] of 5.75 µM, a TGI [2] of 33.9 µM and a TGI [3] of 48.1 µM. For the same molecule, the TGI [4] was 8.16 µM, the TGI [8] was 17.5 µM and the TGI [5] was 18.4 µM. The TGI [6] was 29.9 µM, the TGI [9] was 15.2 µM and the TGI [10] was 26.8 µM. The TGI [7] was 30.8 µM.

`Cc1ccc([N+](=O)[O-])cc1S(=O)(=O)Nc1ccc(C2=NN(C(=O)c3ccccc3)C(c3ccccc3O)C2)cc1` (stereo not given) was tested, and the TGI [1] was 33.5 µM, the TGI [2] was 85.7 µM and the TGI [3] was greater than 100 µM. It also gave a TGI [4] greater than 100 µM, a TGI [8] of 48.6 µM and a TGI [5] greater than 100 µM. It also gave a TGI [6] of 58.6 µM, a TGI [9] of 56.8 µM and a TGI [10] of 29 µM. For the same molecule, the TGI [7] was 46.4 µM.

In the case of `Oc1ccc(Cl)cc1C1=Nn2c(COc3ccc4c(c3)CCCC4)nnc2SC1`, the TGI [1] was 36.7 µM, the TGI [2] was 27.5 µM and the TGI [3] was 30 µM. It also gave a TGI [4] of 49.4 µM, a TGI [8] of 29.5 µM and a TGI [5] of 36.1 µM. The TGI [9] was 29.8 µM, the TGI [10] was 26.7 µM and the TGI [7] was 31.1 µM.

With `C=C(CN(C)C)C(=O)c1ccccc1Cl` the TGI [1] was 38.8 µM, the TGI [2] was greater than 100 µM and the TGI [4] was greater than 75.4 µM. The TGI [8] was 33.3 µM, the TGI [6] was greater than 100 µM and the TGI [9] was 34.9 µM. For the same molecule, the TGI [7] was 36.5 µM.

For `CC(C)(C)COS(=O)OCC(C)(C)C`, the TGI [1] was greater than 100 µM, the TGI [2] was greater than 100 µM and the TGI [3] was greater than 100 µM. For the same molecule, the TGI [4] was greater than 100 µM, the TGI [8] was greater than 100 µM and the TGI [5] was greater than 100 µM. For the same molecule, the TGI [6] was greater than 100 µM, the TGI [9] was greater than 100 µM and the TGI [10] was greater than 100 µM. The TGI [7] was greater than 100 µM.

With `CN(CCc1ccccn1)c1ccc2c(c1)Cc1ccccc1-2` the TGI [1] was greater than 100 µM, the TGI [2] was 44.6 µM and the TGI [3] was 9.92 µM. For the same molecule, the TGI [4] was greater than 100 µM, the TGI [8] was 94.3 µM and the TGI [5] was greater than 100 µM. For the same molecule, the TGI [6] was 40.5 µM, the TGI [9] was greater than 100 µM and the TGI [10] was 23.9 µM.

Molecule `OC1CCSc2ccccc21` (stereo not given) has a TGI [1] greater than 100 µM, a TGI [2] greater than 100 µM and a TGI [4] greater than 100 µM. It also gave a TGI [8] greater than 100 µM, a TGI [6] greater than 100 µM and a TGI [9] greater than 100 µM. The TGI [7] was greater than 100 µM.

In the case of `CCOC(=O)c1cccc(N=Nc2ncc(/C=C/C(=O)OC)[nH]2)c1`, the TGI [1] was greater than 100 µM, the TGI [2] was 51.3 µM and the TGI [3] was greater than 100 µM. It also gave a TGI [4] greater than 100 µM, a TGI [8] of 76 µM and a TGI [5] greater than 100 µM. It also gave a TGI [6] greater than 100 µM, a TGI [9] of 71.1 µM and a TGI [10] greater than 100 µM. It also gave a TGI [7] greater than 100 µM.

For `NC(N)=N/N=C/c1c(-c2cccs2)nc2n1CCS2`, the GI50 [1] was 20.6 µM, the TGI [1] was 60.1 µM and the GI50 [3] was 18.8 µM. For the same molecule, the TGI [3] was 77.4 µM, the GI50 [4] was 27.9 µM and the TGI [4] was 71.8 µM. For the same molecule, the GI50 [5] was 16.7 µM, the TGI [5] was 30.7 µM and the GI50 [6] was 15.9 µM. The TGI [6] was 31.8 µM, the GI50 [9] was 15.5 µM and the TGI [9] was 32.7 µM. For the same molecule, the GI50 [10] was 19.7 µM, the TGI [10] was 36 µM and the GI50 [7] was 43.3 µM. It also gave a TGI [7] greater than 100 µM.

`CC(C)C(=O)CC(c1ccc(Br)cc1)N1N=C(C(C)C)CC1c1ccc(Br)cc1` (stereo not given) showed a TGI [1] greater than 100 µM, a TGI [2] greater than 100 µM and a TGI [4] greater than 100 µM. The TGI [8] was greater than 100 µM, the TGI [6] was greater than 100 µM and the TGI [9] was greater than 100 µM. It also gave a TGI [7] greater than 100 µM.

With `CS(=O)(=O)Nc1cccc(-c2ccc3ncnc(Nc4cncc(Cl)c4)c3c2)c1` the GI50 [2] was 2.7 µM, the TGI [2] was 17.8 µM and the GI50 [3] was 1.35 µM. For the same molecule, the TGI [3] was 6.41 µM, the GI50 [4] was 2.59 µM and the TGI [4] was greater than 100 µM. It also gave a GI50 [5] of 3.2 µM, a TGI [5] greater than 100 µM and a GI50 [6] of 2.21 µM. It also gave a TGI [6] of 8.23 µM, a GI50 [7] of 2.64 µM and a TGI [7] of 7.35 µM.

`O=S(C(c1ccccc1)=P(c1ccccc1)(c1ccccc1)c1ccccc1)c1ccc(Cl)cc1` (stereo not given) gave a TGI [1] greater than 100 µM, a TGI [2] of 64.6 µM and a TGI [3] of 55.3 µM. It also gave a TGI [4] greater than 100 µM, a TGI [8] greater than 100 µM and a TGI [5] of 40.6 µM. For the same molecule, the TGI [6] was greater than 100 µM, the TGI [9] was greater than 100 µM and the TGI [10] was 68.4 µM. For the same molecule, the TGI [7] was 45.9 µM.

In the case of `O=C1CNc2cc(N3CCCCC3)ccc2N1`, the TGI [1] was greater than 100 µM, the TGI [2] was greater than 100 µM and the TGI [3] was greater than 100 µM. The TGI [4] was greater than 100 µM, the TGI [8] was greater than 100 µM and the TGI [5] was greater than 100 µM. It also gave a TGI [6] of 37.3 µM, a TGI [9] greater than 100 µM and a TGI [10] greater than 100 µM. It also gave a TGI [7] greater than 100 µM.

Work on `CCOC(=O)/C=C/C1=C(Br)[C@@]2(C)CC[C@@H]3c4ccc(O)cc4CC[C@H]3[C@@H]2C1` yielded a TGI [1] of 24.4 µM, a TGI [2] of 27.5 µM and a TGI [3] of 28.9 µM. It also gave a TGI [4] of 24.9 µM, a TGI [8] of 23.9 µM and a TGI [5] of 28.8 µM. For the same molecule, the TGI [6] was 30.2 µM, the TGI [9] was 20.5 µM and the TGI [10] was 28.5 µM. It also gave a TGI [7] of 28.1 µM.
